Test results from patent US9790233B2, “Compositions and methods of modulating 15-PGDH activity” (CASE WESTERN RESERVE UNIVERSITY, priority 2012, dated 2017).
Like-named read-outs stand apart in the source and are kept apart here.

Columns and labels:
[1] = Survival after whole body irradiation; type: in vivo, C57BL/6J mice; settings: 11 Gy
[2] = test system: A549 cells; assay: PGE2 levels in the medium of IL1-beta stimulated A549 cells;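 further: PGE2 in the collected culture medium quantified by enzyme immunoassay (ELISA), with data drawn from three independent experiments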; type: cell-based; settings: 100 nM drug; FIG. 44
[3] = test system: 15-PGDH luciferase fusion construct in Vaco503 reporter cell line; assay: 15-PGDH-luciferase fusion gene reporter induction, V503 cells; type: cell-based; settings: read-out: V503 reporter activity ([…]), […]
[4] = test system: 15-PGDH luciferase fusion construct in V9m reporter cell line; assay: 15-PGDH-luciferase fusion gene reporter induction, V9m cells; type: cell-based; settings: read-out: V9M reporter activity ([…]), […]
[5] = test system: 15-PGDH luciferase fusion construct in LS174T reporter cell line; assay: 15-PGDH-luciferase fusion gene reporter induction, LS174T cells; type: cell-based; settings: Homo sapiens
[6] = % induction over basal level, Table 17, read-out: V503 reporter activity (2.5 μM)
[7] = % induction over basal level, Table 17, read-out: V503 reporter activity (7.5 μM)
[8] = % induction of luciferase activity over basal level, Table 17, read-out: V9M reporter activity (2.5 μM)
[9] = % induction over basal level, Table 17, read-out: V9M reporter activity (7.5 μM)
[10] = read-out: LS174T reporter activity ([…]), […], % induction over basal level, Table 17, read-out: LS174T reporter activity (2.5 μM)
[11] = read-out: lS174T reporter activity ([…]), […], % induction over basal level, Table 17, read-out: lS174T reporter activity (7.5 μM)

| Compound | longer survival than vehicle control ([1]; 5 mg/kg IP daily) [h] | day on which all mice were dead ([1]; control day 8) [days] | rank of PGE2 level in the medium [2] | activation at […] [3, 6] [%] | activation at […] [3, 7] [%] | activation at […] [4, 8] [%] | activation at […] [4, 9] [%] | activation at […] [5, 10] [%] | activation at […] [5, 11] [%] | activation at […] ([3]; % increased luciferase activity over basal level, read-out: V503 reporter activity (2.5 uM)) [%] | activation at […] ([3]; % increased luciferase activity over basal level, read-out: V503 reporter activity (7.5 uM)) [%] | activation at […] ([4]; % increased luciferase activity over basal level, 100 = doubling, read-out: V9M reporter activity (2.5 uM)) [%] | activation at […] ([4]; % increased luciferase activity over basal level, 100 = doubling, read-out: V9M reporter activity (7.5 uM)) [%] | activation at […] ([5]; read-out: LS174T reporter activity ([…]), […], % increased luciferase activity over basal level, read-out: LS174T reporter activity (2.5 uM)) [%] | activation at […] ([5]; read-out: LS174T reporter activity ([…]), […], % increased luciferase activity over basal level, read-out: LS174T reporter activity (7.5 uM)) [%] |
| --- | --- | --- | --- | --- | --- | --- | --- | --- | --- | --- | --- | --- | --- | --- | --- |
| 2-(butylsulfinyl)-4-phenyl-6-(thiophen-2-yl)thieno[2,3-b]pyridin-3-amine [SW033291] | 48 | 10 |  |  |  |  |  |  |  |  |  |  |  |  |  |
| CCCC[S+]([O-])c1sc2nc(-c3nccs3)cc(-c3ccccc3)c2c1N (stereo not drawn) [SW208066, 2-(butylsulfinyl)-4-phenyl-6-(thiazol-2-yl)thieno[2,3-b]pyridin-3-amine] |  |  | highest levels of PGE2 |  |  |  |  |  |  |  |  |  |  |  |  |
| COc1ccc(N(CC(=O)Nc2ccc(CC#N)cc2)S(=O)(=O)c2ccccc2)cc1Cl [compound 919576] |  |  |  | 49.2 | 73.7 | 49.9 | 63 | 17.5 | 30.7 |  |  |  |  |  |  |
| COc1ccc(NC(=O)CN(c2ccccc2OC)S(C)(=O)=O)cc1 [compound 920847] |  |  |  | -4.47 | -10.6 | 9.26 | 17.7 | 6.18 | 2.97 |  |  |  |  |  |  |
| COc1ccc(OC)c(N(CC(=O)Nc2ccccc2Br)S(=O)(=O)c2ccc(OC)c(OC)c2)c1 [compound 924740] |  |  |  | 20.2 | 52.2 | -0.54 | 6.33 | 7.69 | 16.7 |  |  |  |  |  |  |
| COc1ccc(OC)c(N(CC(=O)Nc2cccc(Br)c2)S(=O)(=O)c2ccc(OC)c(OC)c2)c1 [compound 939417] |  |  |  | 12.6 | 16.2 | -11.2 | -9.81 | 6.5 | -1.64 |  |  |  |  |  |  |
| COc1ccc(OC)c(N(CC(=O)NC(C)c2ccccc2)S(=O)(=O)c2ccc(OC)c(OC)c2)c1 (stereo not drawn) [compound 967134] |  |  |  | 18.4 | 36.1 | -10.1 | -2.64 | 5.11 | 5.73 |  |  |  |  |  |  |
| NC(=O)c1sc2nc(-c3cccs3)cc(-c3ccc(F)cc3)c2c1N [compound 980653] |  |  |  |  |  |  |  |  |  | -10.5 | -15.2 | 8.83 | 12 | 5.76 | 11 |
| COc1ccc(OC)c(NC(=O)CN(c2ccccc2)S(=O)(=O)c2cc(Br)ccc2OC)c1 [compound 1002654] |  |  |  | 0.78 | 19.2 | -2.58 | -3.96 | 5.51 | -1.24 |  |  |  |  |  |  |
| COc1ccc(OC)c(N(CC(=O)Nc2ccc(I)cc2C)S(=O)(=O)c2ccccc2)c1 [compound 1003012] |  |  |  | 34.4 | 58.5 | -10.4 | -0.9 | 5.54 | 19.8 |  |  |  |  |  |  |
| CCOC(=O)c1ccc(NC(=O)CN(c2cc(OC)ccc2OC)S(=O)(=O)c2ccc(OC)c(OC)c2)cc1 [compound 1003132] |  |  |  | 15.4 | 16.1 | -5.6 | -0.21 | 5.16 | 1.73 |  |  |  |  |  |  |
| COc1ccc(OC)c(N(CC(=O)Nc2ccccc2C(=O)NC(C)C)S(=O)(=O)c2ccc(OC)c(OC)c2)c1 [compound 1003378] |  |  |  | 7.23 | 16.7 | -4.42 | -3.27 | 7.3 | 1.27 |  |  |  |  |  |  |
| CCc1cccc(CC)c1NC(=O)CN(c1cc(OC)ccc1OC)S(=O)(=O)c1ccc(OC)c(OC)c1 [compound 1003429] |  |  |  | -7.46 | -19.2 | 12.6 | 4.17 | 8.82 | -6.88 |  |  |  |  |  |  |
| COc1ccc(OC)c(N(CC(=O)Nc2ccc(Br)cc2F)S(=O)(=O)c2ccc(C)cc2)c1 [compound 1004292] |  |  |  | 23.5 | 21.2 | 0.88 | -0.21 | 20.3 | 0.14 |  |  |  |  |  |  |
